Laboratory results taken from patent publication US9822136B2, “Chemical inhibitors of sebocyte function” (priority 2016, dated 2017).

Columns and labels:
sebocytes [1] = test: IGF-1 stimulated lipogenesis in sebocytes (Oil Red O, thin-layer and gas chromatography of lipids); format: cell-based, human
Procedure: The activities of 1-7 and 1-8 on an immortalized sebocyte cell line were examined in the laboratory of Prof Im Myung using methods previously described [Im et al. Epigallocatechin-3-gallate suppresses IGF-I-induced lipogenesis and cytokine expression in SZ95 sebocytes. J. Invest. Dermatol. […] Proliferation of the sebocytes was measured using the MTT assay, by examination of micrographs of the cells in culture, and ^3H-thymidine incorporation. The effects of the test agents on lipogenesis were further studied by Oil Red O staining and analysis of the lipid composition of the cells. Studies were also conducted on signaling pathways for lipogenesis [PPAR and SREBP-1, Trivedi et al. Peroxisome proliferator-activated receptors increase human sebum production. J. Invest. Dermatol.
J. Invest. Dermatol. […] Oil Red 0 [Sudan Red 5B] is a diazo dye used for staining neutral triglycerides and lipids on cells.

sebocytes [2] = test: Sebocyte viability, MTT assay; format: cell-based, human
Procedure: (§1) The activities of 1-7 and 1-8 on an immortalized sebocyte cell line were examined in the laboratory of Prof Im Myung using methods previously described [Im et al. Epigallocatechin-3-gallate suppresses IGF-I-induced lipogenesis and cytokine expression in SZ95 sebocytes. J. Invest. Dermatol. 132, 2700-8 (2012)]. Proliferation of the sebocytes was measured using the MTT assay, by examination of micrographs of the cells in culture, and ^3H-thymidine incorporation. The effects of the test agents on lipogenesis were further studied by Oil Red O staining and analysis of the lipid composition of the cells. Studies were also conducted on signaling pathways for lipogenesis [PPAR and SREBP-1, Trivedi et al. Peroxisome proliferator-activated receptors increase human sebum production. J. Invest. Dermatol. 126, 2002-9 (2006)].
The MTT assay is a colorimetric assay for cell viability. MTT [3-(4,5-dimethylthiazol-2-yl)-2-5-diphenyltetrazolium bromide], a yellow tetra-azole dye, is reduced to purple formazan in living cells by NADPH-dependent oxidoreductase enzymes. When the number of viable cells decreases the amount of enzymatic activity and purple color decreases and this can be measured with a spectrophotometer.
(§2) 1-7 and 1-8 are sensory cooling agents on the skin and activators [agonists] of the TRPM8 ion channel protein. […] The indicators used for direct comparison were sebocyte viability measured in the MTT assay and then the ^3H-thymidine incorporation assay.

[3] = system: sterol-response binding protein [SBEP-1]; test: Marker of sebum production in sebocytes: SREBP-1; format: cell-based, human
Procedure: as §1
(§3) There are intracellular biochemical receptors and markers of sebocyte activation and sebum production. Peroxisome proliferator-activated receptors [PPAR] agonists increase sebum production in isolated sebocytes [Trivedi et al. (2006)]. This class of receptors is reduced after 1-8. Similarly, the […] which is linked to lipogenesis in sebocytes, was reduced by 1-8. These effects were specific to the markers of sebum production, as cellular receptors such as TRPM8 and actin were not affected by 1-8.

sebocytes [4] = test: 3H-thymidine incorporation into sebocytes; format: cell-based, human; conditions: Homo sapiens, 3 h; uptake into sebocytes; NS = not significant
Procedure: as §1, §2

zygomatic/forehead skin = test: Cooling sensation after application to zygomatic/forehead skin; format: in vivo, human
Procedure: When certain Dapa compounds are applied to the zygomatic and forehead skin, sensations of coolness/cold are felt and can be graded in intensity [Wei. 1-Di-isopropyl-phosphinoyl-alkanes as topical agents for the treatment of sensory discomfort. US 2015/0164924]. For example, one can rate the sensation as 0, 1, 2, or 3 with: 0 as no change; 1 as slight coolness, or cold; 2 as clear-cut signal of coolness or cold; and 3 as strong cooling or cold. The intervals for recording are 5 to 15 minutes, until at least two successive zeroes are obtained. The onset of drug action is taken as the time to reach 2 units of coolness intensity. The active compounds here, e.g, 1-7 produce cooling with 1 min after application. The duration of Dapa-compound action is defined as the offset time minus the onset time. The offset of drug action is defined here as the time when coolness intensity drops below 2, after previously surpassing 2 units.
Test compounds were applied to the skin of the forehead and zygomatic using cotton gauze (0.4 g, rectangular, 50 mm×60 mm; from CS-being, Daisan Cotton, Japan). The test compounds were used at a concentration of 20 mg/mL in distilled water. From the data shown above, it can be seen that, among these compounds, 1-7 and 1-8 evoked cool/cold on zygomatic/forehead skin.

cloned hTRPM8 channel = target: T1, cloned hTRPM8 channel (Homo sapiens, UniProt Q7Z2W7); test: TRPM8 activation, FLIPR calcium assay in CHO cells; format: cell-based
T1 construct: host or cells: CHO cells
Procedure: The in vitro effects of test articles were first evaluated on cloned hTRPM8 channel. […] The test cells were Chinese Hamster Ovary (CHO) cells stably transfected with human TRPM8 cDNAs. […] Substances were evaluated at 8 concentrations (0.03 to 300 μM) with n=4 replicates per determination. For Fluorescence Imaging Plate Reader ([…]″) assay, cells were plated in 384-well black wall, flat clear-bottom microtiter plates (Type: BD Biocoat Poly-D-Lysine Multiwell Cell Culture Plate) at approximately 30,000 cells per well. Cells were incubated at 37° C. overnight to reach a near confluent monolayer appropriate for use in a fluorescence assay. The test procedure was to remove the growth media and to add 40 μL of HBPS containing Fluo-8 for 30 minutes at 37° C. 10 μL of test compound, vehicle, or control solutions in HBPS were then added to each well and read for 4 min using a Fluo-8 calcium kit and the […]″ instrument (Molecular Devices, Sunnyvale, California). […] J. Neurosci.
Concentration-response data were analysed via the FLIPR Control software that is supplied with the FLIPR System (MDS-AT) and fitted to a Hill equation of the following form: Response=Base+(Max−Base)/1+(xhalf/x)^rate, where: “Base” is the response at low concentrations of test compound; “Max” is the maximum response at high concentrations; “xhalf” is the EC50 (the concentration of test compound producing half-maximal activation); and “rate” is the Hill coefficient. Nonlinear least squares fits were made assuming a simple one-to-one binding model.

human sebocytes = test: Inhibition of sebocyte function in cultured human sebocytes (assay not specified); format: cell-based; conditions: 0.1mM
Procedure: as §1, §2

TRPM8 and actin = test: Non-sebum cellular markers in sebocytes; format: cell-based, human
Excerpt: as §3

[5] = system: Peroxisome proliferator-activated receptors [PPAR]; test: Marker of sebum production in sebocytes: PPAR; format: cell-based, human
Procedure: as §1, §3

[6] = Foaming of aqueous solution on manual shaking; format: physicochemical; conditions: 10 mg/mL in distilled water
Procedure: The foaming seen in 7B is characteristic of a surface active agent or “surfactant” and is caused by an amphiphilic structure.
Plain water will not make bubbles because the water molecules are more strongly attracted to each other than to air. But when a surfactant is added, the surface tension of the liquid is reduced and it can wrap itself around air to form foam or soap bubbles. The foaming is enhanced when the liquid is shaken vigorously.

T1 sequence (Q7Z2W7 whole entry): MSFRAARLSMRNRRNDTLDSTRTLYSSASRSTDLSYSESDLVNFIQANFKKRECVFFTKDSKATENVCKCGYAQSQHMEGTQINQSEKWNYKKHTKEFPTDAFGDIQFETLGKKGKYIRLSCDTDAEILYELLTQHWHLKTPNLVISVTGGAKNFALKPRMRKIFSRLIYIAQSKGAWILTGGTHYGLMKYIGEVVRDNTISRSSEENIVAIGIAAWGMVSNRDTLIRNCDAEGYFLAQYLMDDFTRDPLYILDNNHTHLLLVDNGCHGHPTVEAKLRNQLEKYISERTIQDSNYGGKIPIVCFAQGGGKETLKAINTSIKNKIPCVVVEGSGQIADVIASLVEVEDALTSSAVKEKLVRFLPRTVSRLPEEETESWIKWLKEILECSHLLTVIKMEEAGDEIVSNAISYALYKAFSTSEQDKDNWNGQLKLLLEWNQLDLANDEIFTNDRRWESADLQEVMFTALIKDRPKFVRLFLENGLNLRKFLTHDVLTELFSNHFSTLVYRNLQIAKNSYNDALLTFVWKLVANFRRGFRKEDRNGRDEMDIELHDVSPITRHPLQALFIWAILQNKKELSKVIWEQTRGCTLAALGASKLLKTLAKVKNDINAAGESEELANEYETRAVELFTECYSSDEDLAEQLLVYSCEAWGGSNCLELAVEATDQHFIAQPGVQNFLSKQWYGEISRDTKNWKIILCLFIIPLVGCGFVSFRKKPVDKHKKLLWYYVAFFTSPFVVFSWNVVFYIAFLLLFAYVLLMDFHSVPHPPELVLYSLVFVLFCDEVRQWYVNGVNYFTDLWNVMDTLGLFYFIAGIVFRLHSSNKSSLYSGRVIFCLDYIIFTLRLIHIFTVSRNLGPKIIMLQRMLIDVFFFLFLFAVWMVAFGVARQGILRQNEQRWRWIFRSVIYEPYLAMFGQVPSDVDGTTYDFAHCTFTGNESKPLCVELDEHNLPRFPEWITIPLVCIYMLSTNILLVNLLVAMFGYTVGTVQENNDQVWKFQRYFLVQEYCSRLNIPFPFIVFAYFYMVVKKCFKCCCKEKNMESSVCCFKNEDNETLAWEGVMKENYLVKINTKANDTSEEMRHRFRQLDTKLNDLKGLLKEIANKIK

Row | Compound | IGF-1 induced increase of lipids in cells (Oil Red O photomicrograph) (sebocytes [1]; IGF-1 50 ng/mL, 0.1mM) | Squalene and wax esters (thin-layer chromatography and gas-chromatography) (sebocytes [1]; IGF-1 stimulated sebocytes) | Photomicrographs of sebocyte cultures (sebocytes [2]; 0.1mM) | Sebocyte cell viability as % of controls (FIG. 3) (sebocytes [2]; concentrations in mM, 1-8 at 1 mM) | SBEP-1 level [3] | activity at 10 µM (sebocytes [4]) [%] | Sensory Quality (zygomatic/forehead skin; 20 mg/mL in distilled water) | Duration (zygomatic/forehead skin; 20 mg/mL in distilled water, offset minus onset) [h] | Onset (zygomatic/forehead skin; 20 mg/mL in distilled water, time to reach 2 units of coolness) [min] | Duration of localized cooling and refreshing sensations (zygomatic/forehead skin; forehead skin, 20 mg/mL, 0.08 to 0.15 mL) | Relative Potency to I-menthol (cloned hTRPM8 channel; TRPM8 EC50 relative to I-menthol) | Inhibition of sebocyte function (human sebocytes) | TRPM8 and actin levels (TRPM8 and actin) | PPAR level [5] | Levels / production of squalene (thin layer chromatography, FIG. 5) (sebocytes [1]; IGF-1 stimulated sebocytes) | Activity relative to 1-8 in the MTT sebocyte assay (sebocytes [2]; FIG. 4) | Sebocyte cell viability as % of controls (FIG. 4) (sebocytes [2]; at 0.10 μM) | Appearance after manual shaking (FIG. 7B) [6] | Activity on TRPM8 (cloned hTRPM8 channel)
1 | CCCCCCCCP(=O)(C(C)C)C(C)C [Code 1-8, 1-diisopropylphosphoryloctane] | inhibited | selectively decreased | patchy empty spaces | strongly inhibited | reduced | ≥ 78 | cold-icy | 4.0 | ~1 | several hours | 5.4 | potent inhibitor | not affected | reduced |  |  |  |  | 
2 | CCCCCCCCCCCP(=O)(C(C)C)C(C)C [Code 1-11, 1-diisopropylphosphorylundecane] |  |  |  |  |  | ≥ 88 |  |  |  |  |  |  |  |  | lowers | 10,000 x | strongly inhibited | foaming | low potency
